In patent US9422311B2, “Compounds for the treatment of hepatitis C” (priority 2012, dated 2016):
Where two headings read alike, the source gives them in different places.

System: HCV pseudoparticles, genotype 1a (H77C) E1 and E2 envelope
Assay: HCV pseudoparticle infection assay (luciferase, Huh7 cells)
Assay type: cell-based, hepatitis C virus (HCV) genotype 1a
Conditions: Hepatitis C virus, Huh-7, 48 h, read-out: EC50 (nM) 1a (H77C), HCV pseudoparticles genotype 1a (H77C), Huh7 cells, luciferase 2 days after infection

Row | SMILES | EC50 (class symbol) | EC50 (numeric value)
1 | C=C1COc2ccc(cc2)CNc2nc(nc(OCC(F)(F)F)n2)Nc2ccc(cc2)C(=O)NCC(C)(C)CN(C(=O)C(=O)OCC)C1 [Example 1001] | 0.1 to 100 nM | 0.629 nM
2 | C=C1COc2ccc(cc2)CNc2nc(nc(OCC(F)(F)F)n2)Nc2ccc(cc2)C(=O)NCC(C)(C)CN(C(=O)C(=O)O)C1 [Example 1002] | 0.1 to 100 nM | 5.73 nM
3 | C=C1COc2ccc(cc2)CNc2nc(nc(OCC(F)(F)F)n2)Nc2ccc(cc2)C(=O)NCC(C)(C)CN(C(=O)C(=O)NCC2CC2)C1 [Example 1003] | 0.1 to 100 nM | 
4 | C=C1COc2ccc(cc2)CNc2nc(nc(OCC(F)(F)F)n2)Nc2ccc(cc2)C(=O)NCC(C)(C)CN(C(=O)C(=O)Nc2ccc(F)cc2)C1 [Example 1004] | 0.1 to 100 nM | 
5 | CC1(C)CNC(=O)c2ccc(nc2)Nc2cc(nc(OCC(F)(F)F)n2)NCc2ccc(cc2)OCCCN(C(=O)C(=O)Nc2ccc(Cl)c(F)c2)C1 [Example 2003] | 0.1 to 100 nM | 0.105 nM
6 | CC1(C)CNC(=O)c2ccc(nc2)Nc2cc(nc(OCC(F)(F)F)n2)NCc2ccc(cc2)OCCCN(C(=O)C(=O)Nc2ccc(C#N)cc2)C1 [Example 2004] | 0.1 to 100 nM | 
7 | CN(C)C(=O)C(=O)N1CCCOc2ccc(cc2Cl)CNc2nc(nc(OCC(F)(F)F)n2)Nc2ccc(cc2)C(=O)NCC(C)(C)C1 [Example 3001] | 0.1 to 100 nM | 
8 | CC1(C)CNC(=O)c2ccc(cc2)Nc2nc(nc(OCC(F)(F)F)n2)NCc2ccc(c(Cl)c2)OCCCN(C(=O)C(N)=O)C1 [Example 3002] | 0.1 to 100 nM | 
9 | Cc1ccc(NC(=O)C(=O)N2CCCOc3ccc(cc3Cl)CNc3nc(nc(OCC(F)(F)F)n3)Nc3ccc(cc3)C(=O)NCC(C)(C)C2)cc1 [Example 3003] | 0.1 to 100 nM | 
10 | CC1(C)CNC(=O)c2ccc(cc2)Nc2nc(nc(OCC(F)(F)F)n2)NCc2ccc(c(Cl)c2)OCCCN(C(=O)C(=O)N2CCOCC2)C1 [Example 3005] | 0.1 to 100 nM | 
11 | CC1(C)CNC(=O)c2ccc(cc2)Nc2nc(nc(OCC(F)(F)F)n2)NCc2ccc(c(Cl)c2)OCCCN(C(=O)C(=O)Nc2nncs2)C1 [Example 3006] | 0.1 to 100 nM | 
12 | CC1(C)CNC(=O)c2ccc(cc2)Nc2nc(nc(OCC(F)(F)F)n2)NCc2ccc(c(Cl)c2)OCCCN(C(=O)C(=O)Nc2cccc(F)c2)C1 [Example 3007] | 0.1 to 100 nM | 
13 | CC1(C)CNC(=O)c2ccc(cc2)Nc2nc(nc(OCC(F)(F)F)n2)NCc2ccc(c(Cl)c2)OCCCN(C(=O)C(=O)Nc2ccc(F)cc2)C1 [Example 3008] | 0.1 to 100 nM | 2.42 nM
14 | CC1(C)CNC(=O)c2ccc(cc2)Nc2nc(nc(OCC(F)(F)F)n2)NCc2ccc(c(Cl)c2)OCCCN(C(=O)C(=O)Nc2ccccc2)C1 [Example 3009] | 0.1 to 100 nM | 
15 | CC1(C)CNC(=O)c2ccc(cc2)Nc2nc(nc(OCC(F)(F)F)n2)NCc2ccc(c(Cl)c2)OCCCN(C(=O)C(=O)Nc2cc(F)cc(F)c2)C1 [Example 3010] | 0.1 to 100 nM | 
16 | CC1(C)CNC(=O)c2ccc(cc2)Nc2nc(nc(OCC(F)(F)F)n2)NCc2ccc(c(Cl)c2)OCCCN(C(=O)C(=O)NC2CCCCC2)C1 [Example 3012] | 0.1 to 100 nM | 
17 | CC1(C)CNC(=O)c2ccc(cc2)Nc2nc(nc(OCC(F)(F)F)n2)NCc2ccc(c(Cl)c2)OCCCN(C(=O)C(=O)N2CCc3ccccc3C2)C1 [Example 3013] | 0.1 to 100 nM | 
18 | CC(C)CNC(=O)C(=O)N1CCCOc2ccc(cc2Cl)CNc2nc(nc(OCC(F)(F)F)n2)Nc2ccc(cc2)C(=O)NCC(C)(C)C1 [Example 3014] | 0.1 to 100 nM | 
19 | CNC(=O)C(=O)N1CCCOc2ccc(cc2Cl)CNc2nc(nc(OCC(F)(F)F)n2)Nc2ccc(cc2)C(=O)NCC(C)(C)C1 [Example 3015] | 0.1 to 100 nM | 
20 | CCc1nnc(NC(=O)C(=O)N2CCCOc3ccc(cc3Cl)CNc3nc(nc(OCC(F)(F)F)n3)Nc3ccc(cc3)C(=O)NCC(C)(C)C2)s1 [Example 3016] | 0.1 to 100 nM | 24 nM
21 | Cc1cc(NC(=O)C(=O)N2CCCOc3ccc(cc3Cl)CNc3nc(nc(OCC(F)(F)F)n3)Nc3ccc(cc3)C(=O)NCC(C)(C)C2)no1 [Example 3017] | 0.1 to 100 nM | 
22 | CC1(C)CNC(=O)c2ccc(cc2)Nc2nc(nc(OCC(F)(F)F)n2)NCc2ccc(c(Cl)c2)OCCCN(C(=O)C(=O)N2CCCCC2)C1 [Example 3018] | 0.1 to 100 nM | 
23 | CC1(C)CNC(=O)c2ccc(cc2)Nc2nc(nc(OCC(F)(F)F)n2)NCc2ccc(c(Cl)c2)OCCCN(C(=O)C(=O)Nc2nccs2)C1 [Example 3019] | 0.1 to 100 nM | 
24 | Cc1nnc(NC(=O)C(=O)N2CCCOc3ccc(cc3Cl)CNc3nc(nc(OCC(F)(F)F)n3)Nc3ccc(cc3)C(=O)NCC(C)(C)C2)s1 [Example 3020] | 0.1 to 100 nM | 
